# From publication PMC8247886, “Getting a Grip on the Undrugged: Targeting β‐Catenin with Fragment‐Based Methods” (Chemmedchem, 2021)
# pKd: −log10 of the molar value.
# Tests used:
# β-catenin141–305 [1] = target: T1, β-catenin141–305 (Homo sapiens, UniProt P35222); experiment: 2D 15N NMR (TROSY/HSQC/HMQC) detected binding and Kd titration
# T1 construct: Amino acids 141-305 of uniprot ID: P35222; GST (cleaved yes); made in house; host or cells: E. coli BL21 (DE3)
# T1 sequence (P35222 141-305): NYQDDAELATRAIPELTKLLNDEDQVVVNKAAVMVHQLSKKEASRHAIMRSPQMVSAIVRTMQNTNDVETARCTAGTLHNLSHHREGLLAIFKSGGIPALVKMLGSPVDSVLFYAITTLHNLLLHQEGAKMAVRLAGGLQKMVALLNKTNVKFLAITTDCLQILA
# Procedure: The construct for expression of β-catenin141-305 (Amino acids 141-305 of uniprot ID: P35222) is based on the previously reported R4 construct1. The plasmid was used to transform E. coli, strain BL21 (DE3) cells (Invitrogen). For protein expression, an overnight culture in LB-medium supplemented ampicillin (100 µg/mL) at 37 °C was prepared and diluted the next day with fresh 2xYT-medium. At OD600 of 0.8 the culture was cooled down to 18 °C and after induction with 0.5 mM IPTG incubated for 20 h. Cell pellets obtained by centrifugation at 5000 rpm were stored at - 20 °C. Cells were solubilized in buffer A (2X Dulbecco’s PBS; 500 mM NaCl; 10 % Glycerol; 0.5 mM TCEP; cOmplete™ Protease Inhibitor Cocktail; pH 7.4) and disrupted by sonication (Sonopuls, Bandelin) on ice. After 30 min the sonicated lysate was clarified by centrifugation (50 min, 13500 rpm, 4 °C). The supernatant was mixed with 20 mL Glutathione Sepharose® 4B resin (GE Healthcare) slurry, washed in lysis buffer, and steered for 3 hours on ice. The beads were spun down, loaded into a XK16 column cartridge and washed with lysis buffer until baseline. The protein was eluted with buffer B (2X Dulbecco’s PBS; 500 mM NaCl; 10 % Glycerol; 0.5 mM TCEP;; pH 7.4) + 25 mM L-Glutathione reduced. After cleavage with 2000 units Human Alpha Thrombin (Enzyme Research Laboratories) at room temperature overnight, the protein was collected in the flow-through fraction of a second GST run (GSTrap HP 5 mL column; GE Healthcare) using buffer B. The flow-through was concentrated by centrifugation using an Amicon© Ultra 15 mL Centrifugal Filter (Merck Millipore) and loaded onto a HiLoad Superdex S75 column (GE Healthcare) equilibrated with 50 mM Tris; 200 mM NaCl; 3 mM DTT; pH 8.
# Fractions were analyzed by SDS-PAGE and fractions containing the desired protein were pooled and concentrated with an Amicon© Ultra 15 mL Centrifugal Filter (Merck Millipore). […]
# For confirmation of hits obtained from STD-NMR by 2D 15N TROSY NMR4 a Bruker Avance III 600 MHz instrument with a 5 mm cryo-TCI probe and z-gradient was used. The experimental set up (automated sample preparation and transfer into the magnet by a Tecan Freedom Evo pipetting robot and a Bruker Sample Rail system, respectively) was identical. Each sample contained 25 uM 15N labeled β-catenin141-305 25 mM sodium phosphate, 150 mM sodium chloride, 100 mM sodium nitrate, 0.5mM TCEP pH 6.8 in H2O at 25 °C and 8% (v/v) D2O. The protein was incubated with 500 uM fragment in a 2.5 mm NMR tube at 25 °C and a d6DMSO concentration of 1%. Spectra were recorded with 48 transients and 64 data points in the indirect dimension. Manual comparison of the spectrum in the presence of the to be tested fragment with the DMSO reference spectrum reveal either line broadening or chemical shift perturbation of cross peaks. Both effects are indicative for compound binding. All processing and analysis was done with the Topspin 2.1 software (Bruker BioSpin). Further spectral comparisons were performed with the FELIX software package (Felix NMR Inc.) to combine manual with automated analysis5. […]
# 700MHz spectrometer equipped with a cryogenically cooled 5mm TCI probe. […]
# The
# WaterLOGSY pulse sequence was used as described before7. Selective water inversion was achieved with a double excitation sculpting element employing water selective Gaussian refocusing pulses (inversion bandwidth of 0.5 ppm, pulse length of 7.5 ms). The number of scans was set to 2048. Sample concentrations were 0.5 mM ligand and 0.25–10 µM β-catenin135-663 in […]
# β-catenin141–305 [2] = target: T1, β-catenin141–305; experiment: STD-NMR fragment screening in mixtures; assay type: binding; details: fragment mixture, 250 µM each, 10 µM protein
# Source text: labelling the protein was expressed in Overnight Express™ Autoinduction NMR Medium - ¹⁵N - Novagen (Merck Millipore) according to the technical description and purified as described for the unlabeled protein. The protein of β-catenin135-663 (Amino acids 135-663 of uniprot ID: P35222) and the β-catenin binding domain of human BCL9 (Amino acids 347–392 of uniprot ID: O00512, containing an additional n-terminal glycine) was purchased (Proteros Biostructures GmbH).
# Ligand based 1D 1H experiments were carried out on a Bruker Avance II 600 MHz spectrometer with a 5 mm cryo-QCI probe and z-gradients. […] The on and off resonance spectra were recorded in an interleaved fashion to minimize subtraction artifacts. […] After acquisition, the difference spectrum was calculated by subtracting the two individual spectra. […] These were readily assigned by comparing the signals with the respective pre-recorded reference spectra of the individual compounds present in the mixture. […]
# For confirmation of hits obtained from STD-NMR by 2D 15N TROSY NMR4 a Bruker Avance III 600 MHz instrument with a 5 mm cryo-TCI probe and z-gradient was used. […] Spectra were recorded with 48 transients and 64 data points in the indirect dimension. […]
# 1D, GEM by STD and WaterLOGSY experiments were recorded at 298 K on an Avance III 700MHz spectrometer equipped with a cryogenically cooled 5mm TCI probe. […]
# [3] = Solubility in NMR buffer at pH 7.5 by quantitative NMR (maleic acid external standard); assay type: physicochemical; details: NMR buffer (Tris/NaCl with 2% DMSO-d6), aqueous buffer, kinetic from dmso stock; NMR buffer pH 7.5; intended concentration 500 or 2000 μM; read-out: Solub. pH 7.5
# Procedure: buffer (Tris 25 mM, pH 7.5, NaCl 150 mM) containing 2% DMSO-d6. […]
# Solubility of compounds was determined in NMR buffer at pH 7.5 (see above) by integrating the
# signal of 250 µM maleic acid as an external standard relative to the integrals of the ligands. If the
# intended concentrations of 500 µM respective 2000 µM were reached the value is reported as >
# 500 µM or > 2000 µM. […]
# β-catenin = target: β-catenin; set-up: method as in PMID 17052462; details: previously determined binding affinity; read-out: ITC Kd; cited from earlier work
# β-catenin141–305 [4] = target: T1, β-catenin141–305; experiment: Microscale Thermophoresis (MST) screening and Kd determination; assay type: binding; details: assay validation; PBS pH 6.8, 100 mM NaNO3, 0.5 mM TCEP, 0.05% Tween-20, 25 °C
# Procedure: buffer (Tris 25 mM, pH 7.5, NaCl 150 mM) containing 2% DMSO-d6. A stock solution of β-catenin135-663 (12.5 µM) was dialyzed before into Tris 25 mM pH 7.6 NaCl 150 mM and centrifuged at 4° C at 15000 rpm for 20 minutes. Intensity ratios Ilogsy/I1D are derived from scaling of the 1D intensity to the corresponding LOGSY intensity. STD GEMs were acquired with 1.5 µM […]
# 2.0; and 3.0 seconds for the saturation time build up curves to determine the initial rate constants2.
# STD experiments were acquired with on and off resonance saturation at +0.1ppm and -40ppm respectively with 1048 scans each.
# Solubility of compounds was determined in NMR buffer at pH 7.5 (see above) by integrating the signal of 250 µM maleic acid as an external standard relative to the integrals of the ligands. If the intended concentrations of 500 µM respective 2000 µM were reached the value is reported as > 500 µM or > 2000 µM. Compound 3 only reached a concentration of 1000 µM according to the QNMR experiment even though 2000 µM was intended, it’s solubility is therefore reported as […]
# Microscale Thermophoresis.
# Fluorescence labeling of β-catenin141-305 with the NT647 dye was achieved using the Monolith NT.115 Protein Labeling Kit RED-NHS according to the manufacturer’s protocol (NanoTemper Technologies, Munich, Germany). The BCL9 peptide was used as positive control for assay development to achieve a reliably detectable change in the thermophoretic mobility ( ΔFnorm). […]
# Final assay conditions were 50 nM NT647 labeled β-catenin141-305 in PBS pH 6.8 supplemented with 100 mM NaNO3, 0.5 mM TCEP and 0.05% Tween-20 at 25° C. Fragment screening detected […]
# by MST was carried out as previously described8,9. […] Manual inspection of all MST traces was used to reject non-standard traces stemming from protein aggregation, bleaching, or fluorescence quenching. ΔFnorm values (ΔFnorm=Fhot/Fcold) were calculated and the mean values of the duplicates were compared to the mean values of the DMSO negative control. […] Protein integrity over the entire FBS was monitored by the BCL9 peptide positive control. […]
# β-catenin141–305 [5] = target: T1, β-catenin141–305; experiment: Surface Plasmon Resonance (SPR) Kd determination; assay type: binding; details: positive control, n=3; 1:1 binding model
# Procedure: Surface Plasmon Resonance (SPR)
# A Biacore T200 instrument was used for SPR analysis, β-catenin141-305 was pre-diluted to a concentration of 0.1 mg/mL with 10 mM sodium acetate buffer, pH 5.0 and immobilized at a density of 6000 –7000 response units on flow cell 2 of a Biacore CM5 chip. Carbonic anhydraseII served as a reference protein on flow cell 3 and flow cell 1 was kept blank and used as the reference surface. A mixture of 20 mM Tris, pH 7.5, 150 mM NaCl, 0.5 mM TCEP, 0.005% Tween20, 2 % dimethyl sulfoxide was used as assay buffer. After pre -equilibration of the chip with 10 blank injections, the Kd measurements were performed by injecting a concentration series of analyte (9 concentrations, 1:1 dilutions). BCL9 347-392 served as a positive control. K d values were determined by global fitting of the steady-state response for each of the 9 concentrations to a 1:1 interaction model using the Biacore T200 evaluation software. Each compound was injected three times and […]
# average Kd values were calculated from the repeats. The reported data are the mean values of three independent experiments ± standard deviations. […]
# Glutamax Supplement (Thermo Fisher Scientific, 35050061) with 10% FCS (GE Healthcare, SH30071.03). Transfections were performed with Lipofectamine LTX Reagent (Thermo Fisher, 15338100) according the manufacturer’s instructions.
chemical shift perturbations (CSPs) in 2D 15N NMR (β-catenin141–305 [1]; 500 μM compound),"pKd (β-catenin141–305 [1]; 15N NMR titration, single titration, mean of curves of selected cross peaks ± SD, read-out: HSQC Kd)",STD-NMR binding (β-catenin141–305 [2]),solubility [3] [µM],pKd (β-catenin141–305 [4]),pKd (β-catenin141–305 [5]),Compound,pKd (β-catenin)
minor chemical shift perturbation,< 2.00,unambiguously identified as binders,> 500,,,O=C1NCCNc2c1cccc2[N+](=O)[O-] [Compound 1],
,,,,6.44,6.65,"BCL9^347−392: β-catenin binding domain of human BCL9 (amino acids 347–392, additional N-terminal glycine), positive control (NPDGLSQEQLEHRERSLQTLRDIQRMLFPDEKEFTGAQSGGPQQNP; additional N-terminal glycine; UniProt O00512 347-392, looked up, fragment) [reference compound]",6.27
